Data: US20250066350A1, “AROMATIC HETEROCYCLE-SUBSTITUTED COMPOUNDS, AND PREPARATION METHOD THEREFOR AND USE THEREOF” (Innovstone Therapeutics Limited, priority 2021, published 2025)

Key:
ATR enzyme = ATR enzyme (Homo sapiens (Human), UniProt Q13535); assay: Inhibitory effect on ATR enzyme (HTRF, phospho-P53); type: biochemical; settings: 90 minutes incubation, 150 nM ATP final; read-out: IC50 for ATR enzyme inhibition
Summary of the method: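 Recombinant ATR phosphorylating GST-tagged P53 with 150 nM ATP final (40 nM final P53), 10-point compound series from 2985.0 to 0.15 nM, 0.498% DMSO, 90 min at room temperature. Detection with anti-phospho-p53-Eu/anti-GST-d2 overnight at 4° C in dark; HTRF 665/612 ratio used to derive IC50.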

LoVo cells = assay: LoVo cell proliferation experiment (CellTiter-Glo, intracellular ATP); type: cell-based; settings: 96 h; LoVo human colon cancer cells, 4 days; read-out: IC50 for inhibition of LoVo cell proliferation
Description: The following method is used to evaluate the inhibitory effect of the compounds of the present invention on LoVo cell proliferation according to the IC50 values by means of detecting the intracellular ATP content. The experimental method is briefly described as follows:
1. LoVo, human colon cancer tumor cells (Co-bioer, CBP60032)
LoVo cells were cultured in F-12K medium containing 10% FBS and passaged 2 to 3 times a week at a split ratio of 1:3 or 1:5. During passage, the cells were trypsinized and transferred to a centrifuge tube. The tube was centrifuged at 1000 rpm for 5 minutes, the supernatant medium was discarded, and fresh medium was added to resuspend the cells. 100 μL of cell suspension at a density of 1.5×10^4 cells/mL was added to a 96-well cell culture plate, and 100 μL of complete medium only was added to the periphery wells of the 96-well plate. The culture plate was incubated in an incubator for 24 hours (37° C., 5% CO2).
The sample to be tested was diluted to 1 mM with DMSO, diluted 3-fold serially to 8 concentrations, and prepared to 200× dilution with cell culture medium. Blank and control wells were set. 5 μL of the solution containing the compound to be tested prepared in gradient concentrations was added to 95 μL of fresh medium. 100 μL of 1× culture medium containing the compound was added to the culture plate. The culture plate was incubated in an incubator for 4 days (37° C., 5% CO2). 50 μL of CellTiter-Glo reagent was added to each well of the 96-well cell culture plate, and the plate was placed at room temperature in the dark for 5-10 min. The chemiluminescent signal values were read in PHERAstar, and data were processed using GraphPad software.
The inhibitory effect of the compounds of the present invention on LoVo cell proliferation can be determined by the test described above, and the measured IC50 values are shown in Table 2.

SNU-601 cells = assay: SNU-601 cell proliferation experiment (CellTiter-Glo, intracellular ATP); type: cell-based; settings: 120 h; SNU-601 human gastric cancer cells, 5 days; read-out: IC50 for inhibition of SNU-601 cell proliferation
Summary of the method: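 Human gastric cancer cells in RPMI 1640/10% FBS plated and settled 24 h before adding compounds in a 10-point 3-fold series (2 mM DMSO top stock). Exposure 5 days at 37 °C, 5% CO2. Viability by CellTiter-Glo luminescence (ATP); IC50 from the curves.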

Sequence of ATR enzyme (Q13535 whole entry): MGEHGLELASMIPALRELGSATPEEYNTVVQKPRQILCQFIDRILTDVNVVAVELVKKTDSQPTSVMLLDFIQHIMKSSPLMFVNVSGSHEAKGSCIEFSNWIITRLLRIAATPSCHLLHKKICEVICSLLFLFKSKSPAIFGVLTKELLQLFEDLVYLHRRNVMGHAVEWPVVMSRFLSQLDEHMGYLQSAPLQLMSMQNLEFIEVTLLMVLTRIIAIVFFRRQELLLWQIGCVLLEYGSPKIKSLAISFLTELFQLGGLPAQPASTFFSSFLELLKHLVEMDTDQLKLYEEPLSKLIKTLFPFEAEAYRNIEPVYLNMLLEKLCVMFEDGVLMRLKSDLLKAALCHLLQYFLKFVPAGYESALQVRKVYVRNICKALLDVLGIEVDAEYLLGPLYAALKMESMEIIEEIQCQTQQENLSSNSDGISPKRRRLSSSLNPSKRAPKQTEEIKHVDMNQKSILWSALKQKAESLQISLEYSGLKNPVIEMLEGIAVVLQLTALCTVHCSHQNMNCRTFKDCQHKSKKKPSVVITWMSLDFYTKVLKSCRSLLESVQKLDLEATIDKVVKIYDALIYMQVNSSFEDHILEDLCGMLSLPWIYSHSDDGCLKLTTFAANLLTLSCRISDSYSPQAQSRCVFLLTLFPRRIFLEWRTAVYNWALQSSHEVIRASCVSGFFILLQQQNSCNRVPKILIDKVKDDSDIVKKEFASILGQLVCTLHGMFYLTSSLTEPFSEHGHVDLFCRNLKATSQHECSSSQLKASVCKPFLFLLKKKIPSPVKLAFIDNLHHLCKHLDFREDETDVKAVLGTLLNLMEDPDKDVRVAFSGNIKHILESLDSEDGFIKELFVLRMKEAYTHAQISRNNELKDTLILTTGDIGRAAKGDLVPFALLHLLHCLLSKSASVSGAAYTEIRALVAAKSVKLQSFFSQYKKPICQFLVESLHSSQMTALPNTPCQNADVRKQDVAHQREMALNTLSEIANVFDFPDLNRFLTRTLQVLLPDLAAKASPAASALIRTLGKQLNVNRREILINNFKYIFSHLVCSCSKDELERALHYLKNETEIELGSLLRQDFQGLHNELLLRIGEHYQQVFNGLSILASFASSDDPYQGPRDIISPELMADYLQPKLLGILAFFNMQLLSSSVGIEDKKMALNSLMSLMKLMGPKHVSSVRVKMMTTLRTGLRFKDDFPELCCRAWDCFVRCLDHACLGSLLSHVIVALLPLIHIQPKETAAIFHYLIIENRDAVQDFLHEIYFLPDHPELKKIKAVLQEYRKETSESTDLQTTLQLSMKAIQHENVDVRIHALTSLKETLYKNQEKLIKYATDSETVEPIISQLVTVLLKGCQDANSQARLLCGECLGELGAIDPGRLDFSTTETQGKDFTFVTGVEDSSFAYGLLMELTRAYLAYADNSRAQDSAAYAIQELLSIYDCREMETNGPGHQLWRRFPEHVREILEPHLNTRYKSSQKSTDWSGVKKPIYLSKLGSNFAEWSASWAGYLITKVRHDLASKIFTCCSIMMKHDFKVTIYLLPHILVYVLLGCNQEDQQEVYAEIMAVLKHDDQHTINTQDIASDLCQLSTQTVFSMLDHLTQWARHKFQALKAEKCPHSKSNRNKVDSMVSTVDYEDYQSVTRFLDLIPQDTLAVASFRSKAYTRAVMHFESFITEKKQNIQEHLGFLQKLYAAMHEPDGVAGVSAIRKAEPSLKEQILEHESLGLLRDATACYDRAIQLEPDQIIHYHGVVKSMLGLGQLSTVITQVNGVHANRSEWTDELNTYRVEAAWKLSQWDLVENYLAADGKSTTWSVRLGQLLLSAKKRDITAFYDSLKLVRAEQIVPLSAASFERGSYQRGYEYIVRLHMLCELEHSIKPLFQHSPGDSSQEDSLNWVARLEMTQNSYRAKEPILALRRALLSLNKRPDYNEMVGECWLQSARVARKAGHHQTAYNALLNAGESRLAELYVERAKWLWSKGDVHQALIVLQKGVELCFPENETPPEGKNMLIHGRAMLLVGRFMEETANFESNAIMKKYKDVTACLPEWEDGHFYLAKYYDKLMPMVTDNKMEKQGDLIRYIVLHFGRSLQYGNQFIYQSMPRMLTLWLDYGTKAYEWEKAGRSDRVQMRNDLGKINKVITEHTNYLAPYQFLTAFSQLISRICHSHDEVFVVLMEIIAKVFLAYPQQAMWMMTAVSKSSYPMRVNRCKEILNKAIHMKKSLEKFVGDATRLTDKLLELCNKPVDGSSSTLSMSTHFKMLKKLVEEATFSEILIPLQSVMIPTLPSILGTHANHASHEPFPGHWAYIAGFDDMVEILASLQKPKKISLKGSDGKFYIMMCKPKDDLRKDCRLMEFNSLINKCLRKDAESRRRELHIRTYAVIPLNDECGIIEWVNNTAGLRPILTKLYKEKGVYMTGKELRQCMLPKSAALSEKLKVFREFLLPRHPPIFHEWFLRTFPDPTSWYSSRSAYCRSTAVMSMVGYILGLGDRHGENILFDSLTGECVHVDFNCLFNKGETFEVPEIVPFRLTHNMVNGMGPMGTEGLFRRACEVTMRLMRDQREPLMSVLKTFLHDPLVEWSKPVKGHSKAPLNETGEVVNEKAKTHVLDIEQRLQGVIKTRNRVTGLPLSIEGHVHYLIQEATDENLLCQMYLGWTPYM
Sequence of ATR enzyme (Q8WXE1 whole entry partner): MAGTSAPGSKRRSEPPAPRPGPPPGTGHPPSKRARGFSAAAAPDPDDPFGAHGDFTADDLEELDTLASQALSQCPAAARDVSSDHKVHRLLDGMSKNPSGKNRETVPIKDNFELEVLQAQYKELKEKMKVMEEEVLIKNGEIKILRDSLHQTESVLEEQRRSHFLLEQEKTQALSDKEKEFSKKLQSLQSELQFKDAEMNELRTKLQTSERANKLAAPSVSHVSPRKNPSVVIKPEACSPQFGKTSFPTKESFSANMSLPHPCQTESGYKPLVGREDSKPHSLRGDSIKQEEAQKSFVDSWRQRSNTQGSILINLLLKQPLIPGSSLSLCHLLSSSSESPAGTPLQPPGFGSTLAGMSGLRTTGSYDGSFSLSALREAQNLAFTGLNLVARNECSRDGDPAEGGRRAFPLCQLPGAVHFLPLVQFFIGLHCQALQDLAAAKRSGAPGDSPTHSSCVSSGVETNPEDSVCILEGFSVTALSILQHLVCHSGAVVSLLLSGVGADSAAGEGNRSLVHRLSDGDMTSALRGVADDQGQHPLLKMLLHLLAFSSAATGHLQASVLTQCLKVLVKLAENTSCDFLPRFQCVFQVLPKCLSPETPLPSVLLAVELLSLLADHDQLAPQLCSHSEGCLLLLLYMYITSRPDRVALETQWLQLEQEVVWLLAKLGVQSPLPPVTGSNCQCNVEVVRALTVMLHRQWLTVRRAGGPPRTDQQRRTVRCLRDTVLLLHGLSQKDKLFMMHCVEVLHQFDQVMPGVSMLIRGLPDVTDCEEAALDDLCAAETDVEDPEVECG

IC50 (ATR enzyme): ≤ 10 nM
IC50 (LoVo cells): 20 to 100 nM
IC50 (SNU-601 cells): 10 to 100 nM
SMILES: C[C@@H]1COCCN1c1cc([C@]2(O)C[C@H]3CC[C@@H](C2)O3)c2cnn(-c3ccn[nH]3)c2n1 [RP3500, reference compound]
